IC50 data for seven compounds are collected here from ChEMBL document CHEMBL3714760, “Substituted pyrrolo[2,3b]pyrazines and methods for treatment of raf protein kinase-mediated indications” (2012).

The structures appear in SMILES notation.

The target in assay [1] is RAF proto-oncogene serine/threonine-protein kinase (Homo sapiens, UniProt P04049). Description: Inhibition of human C-raf using biotin-MEKl substrate incubated for 1 hr.
The target in assay [2] is Serine/threonine-protein kinase B-raf (Homo sapiens, UniProt P15056). Briefly: Inhibition of N-terminal GST-tagged human recombinant B-Raf (416 to end residues) using biotin-MEKl substrate incubated for 1 hr.
Serine/threonine-protein kinase B-raf, sequence (P15056 whole entry): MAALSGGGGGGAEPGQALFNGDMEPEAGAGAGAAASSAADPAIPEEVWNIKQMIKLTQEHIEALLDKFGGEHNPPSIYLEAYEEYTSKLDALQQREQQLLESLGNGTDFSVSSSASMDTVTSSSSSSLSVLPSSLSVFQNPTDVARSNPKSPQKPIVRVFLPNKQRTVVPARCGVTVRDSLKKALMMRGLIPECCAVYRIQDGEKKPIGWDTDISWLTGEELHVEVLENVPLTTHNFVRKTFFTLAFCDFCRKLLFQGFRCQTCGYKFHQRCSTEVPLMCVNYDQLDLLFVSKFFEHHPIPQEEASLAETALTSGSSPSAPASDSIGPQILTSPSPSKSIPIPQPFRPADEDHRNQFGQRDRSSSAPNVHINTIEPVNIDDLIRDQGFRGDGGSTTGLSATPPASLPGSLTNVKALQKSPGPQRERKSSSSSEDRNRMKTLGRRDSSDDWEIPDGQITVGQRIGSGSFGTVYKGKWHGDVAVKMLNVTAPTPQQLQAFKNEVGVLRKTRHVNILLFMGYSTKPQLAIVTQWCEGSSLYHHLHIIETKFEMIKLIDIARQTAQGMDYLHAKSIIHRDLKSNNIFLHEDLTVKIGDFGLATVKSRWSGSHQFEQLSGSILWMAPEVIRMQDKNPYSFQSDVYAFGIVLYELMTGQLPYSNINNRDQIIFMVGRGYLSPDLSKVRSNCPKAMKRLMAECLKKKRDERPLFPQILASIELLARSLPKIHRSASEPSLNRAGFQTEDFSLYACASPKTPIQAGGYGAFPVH
The target in assay [3] is T1, Serine/threonine-protein kinase A-Raf (Homo sapiens, UniProt P10398).
T1 sequence (P10398 whole entry): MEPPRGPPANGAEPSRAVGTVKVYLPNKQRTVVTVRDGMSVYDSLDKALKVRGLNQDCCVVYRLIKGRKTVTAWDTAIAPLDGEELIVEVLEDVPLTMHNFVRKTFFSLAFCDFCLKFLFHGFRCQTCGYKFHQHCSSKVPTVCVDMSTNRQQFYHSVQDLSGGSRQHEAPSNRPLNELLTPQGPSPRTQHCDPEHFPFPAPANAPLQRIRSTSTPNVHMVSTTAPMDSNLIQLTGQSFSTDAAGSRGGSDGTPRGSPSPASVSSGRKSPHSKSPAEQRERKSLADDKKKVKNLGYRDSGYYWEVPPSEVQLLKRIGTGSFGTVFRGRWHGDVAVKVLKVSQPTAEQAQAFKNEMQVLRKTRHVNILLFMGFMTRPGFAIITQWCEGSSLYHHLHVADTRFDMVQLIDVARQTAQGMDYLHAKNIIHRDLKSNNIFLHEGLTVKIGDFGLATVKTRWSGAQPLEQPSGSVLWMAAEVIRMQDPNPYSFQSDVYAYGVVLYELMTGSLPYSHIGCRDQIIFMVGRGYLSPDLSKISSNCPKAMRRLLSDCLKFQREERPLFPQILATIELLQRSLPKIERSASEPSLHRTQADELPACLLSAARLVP
Briefly: Inhibition of A-raf (unknown origin).

In assay [4] the target is Proto-oncogene tyrosine-protein kinase Src (Homo sapiens, UniProt P12931). Description: Inhibition of Src (unknown origin) expressed in Escherichia coli using biotin-(E4Y)3 substrate.
Proto-oncogene tyrosine-protein kinase Src, sequence (P12931 2-536 limits assumed): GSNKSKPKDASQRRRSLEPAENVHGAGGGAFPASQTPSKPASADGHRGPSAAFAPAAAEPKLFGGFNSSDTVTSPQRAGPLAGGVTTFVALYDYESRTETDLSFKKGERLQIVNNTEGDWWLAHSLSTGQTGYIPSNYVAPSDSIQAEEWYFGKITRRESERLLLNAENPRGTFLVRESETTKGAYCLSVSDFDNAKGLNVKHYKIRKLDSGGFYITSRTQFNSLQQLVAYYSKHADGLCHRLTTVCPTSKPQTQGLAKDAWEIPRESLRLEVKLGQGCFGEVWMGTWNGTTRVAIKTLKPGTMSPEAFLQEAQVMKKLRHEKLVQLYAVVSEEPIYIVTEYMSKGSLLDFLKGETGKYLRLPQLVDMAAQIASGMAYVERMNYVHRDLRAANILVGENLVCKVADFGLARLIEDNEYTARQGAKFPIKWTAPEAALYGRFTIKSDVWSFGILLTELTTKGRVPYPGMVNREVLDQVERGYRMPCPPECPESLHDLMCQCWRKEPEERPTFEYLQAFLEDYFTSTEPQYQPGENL
The target in assay [5] is Vascular endothelial growth factor receptor 2 (Homo sapiens, UniProt P35968). Description: Inhibition of KDR (unknown origin).
Vascular endothelial growth factor receptor 2, sequence (P35968 whole entry): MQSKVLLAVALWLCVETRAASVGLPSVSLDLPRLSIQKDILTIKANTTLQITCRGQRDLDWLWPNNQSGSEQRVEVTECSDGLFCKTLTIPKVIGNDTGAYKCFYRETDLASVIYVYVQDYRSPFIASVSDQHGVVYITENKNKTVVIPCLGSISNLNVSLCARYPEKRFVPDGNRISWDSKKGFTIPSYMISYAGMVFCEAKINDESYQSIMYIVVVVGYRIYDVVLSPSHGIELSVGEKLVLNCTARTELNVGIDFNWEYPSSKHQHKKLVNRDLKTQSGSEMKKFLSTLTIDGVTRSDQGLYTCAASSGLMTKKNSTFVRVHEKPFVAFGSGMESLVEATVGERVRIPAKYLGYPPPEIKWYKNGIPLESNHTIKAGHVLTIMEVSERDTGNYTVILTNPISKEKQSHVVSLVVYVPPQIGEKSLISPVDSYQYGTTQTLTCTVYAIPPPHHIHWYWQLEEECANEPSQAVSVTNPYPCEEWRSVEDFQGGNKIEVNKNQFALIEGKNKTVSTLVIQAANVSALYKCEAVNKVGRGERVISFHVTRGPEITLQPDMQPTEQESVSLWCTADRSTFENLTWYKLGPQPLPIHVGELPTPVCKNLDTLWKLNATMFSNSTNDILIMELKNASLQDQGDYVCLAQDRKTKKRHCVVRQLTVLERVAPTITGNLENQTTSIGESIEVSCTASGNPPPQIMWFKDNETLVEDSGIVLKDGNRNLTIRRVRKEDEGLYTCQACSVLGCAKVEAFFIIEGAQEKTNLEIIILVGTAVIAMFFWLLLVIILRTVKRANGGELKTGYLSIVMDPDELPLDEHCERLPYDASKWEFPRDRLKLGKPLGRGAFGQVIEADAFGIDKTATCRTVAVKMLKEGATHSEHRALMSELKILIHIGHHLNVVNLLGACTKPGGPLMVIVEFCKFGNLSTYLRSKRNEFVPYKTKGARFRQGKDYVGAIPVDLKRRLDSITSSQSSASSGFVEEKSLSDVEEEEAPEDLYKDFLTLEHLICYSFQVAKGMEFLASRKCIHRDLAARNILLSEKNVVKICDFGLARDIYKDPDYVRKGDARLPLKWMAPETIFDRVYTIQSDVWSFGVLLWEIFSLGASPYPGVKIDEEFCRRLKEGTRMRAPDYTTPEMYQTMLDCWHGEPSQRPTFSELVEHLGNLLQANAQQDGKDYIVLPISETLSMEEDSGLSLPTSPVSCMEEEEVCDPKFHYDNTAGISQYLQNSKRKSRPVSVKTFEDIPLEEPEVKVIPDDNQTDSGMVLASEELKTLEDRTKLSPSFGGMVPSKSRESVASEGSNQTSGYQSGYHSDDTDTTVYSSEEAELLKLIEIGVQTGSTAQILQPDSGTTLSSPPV

RAF proto-oncogene serine/threonine-protein kinase, sequence (P04049 whole entry): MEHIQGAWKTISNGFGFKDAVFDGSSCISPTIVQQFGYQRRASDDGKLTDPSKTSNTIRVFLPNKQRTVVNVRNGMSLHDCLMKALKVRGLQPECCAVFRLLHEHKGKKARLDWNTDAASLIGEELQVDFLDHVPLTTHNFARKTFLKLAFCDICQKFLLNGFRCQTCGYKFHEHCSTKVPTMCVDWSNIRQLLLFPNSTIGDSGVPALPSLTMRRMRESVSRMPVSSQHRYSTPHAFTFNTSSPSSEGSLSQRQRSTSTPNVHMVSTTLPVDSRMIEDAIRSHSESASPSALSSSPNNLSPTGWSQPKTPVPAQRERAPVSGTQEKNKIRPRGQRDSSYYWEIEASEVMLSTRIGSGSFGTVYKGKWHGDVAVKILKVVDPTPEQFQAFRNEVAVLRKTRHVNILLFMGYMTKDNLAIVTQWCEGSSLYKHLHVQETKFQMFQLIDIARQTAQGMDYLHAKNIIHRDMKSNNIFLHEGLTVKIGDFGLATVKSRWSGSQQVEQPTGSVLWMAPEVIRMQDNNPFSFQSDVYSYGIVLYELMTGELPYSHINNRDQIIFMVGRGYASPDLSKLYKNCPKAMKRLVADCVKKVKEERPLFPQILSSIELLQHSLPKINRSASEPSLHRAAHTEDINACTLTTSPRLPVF

As for `O=C(c1cccc(NS(=O)(=O)c2ccc(C(F)(F)F)cc2)c1F)c1c[nH]c2nccnc12`, the IC50 in assay [1], in assay [2] and in assay [3] was not above 10 µM throughout.
`CCCS(=O)(=O)Nc1ccc(F)c(C(=O)c2c[nH]c3ncc(Br)nc23)c1F`: the IC50 in assay [1] and in assay [3] was not above 10 µM in each case.
With `CCCS(=O)(=O)Nc1ccc(F)c(C(=O)c2c[nH]c3nccnc23)c1F`, the 50% inhibitory concentration (IC50) in assay [1], in assay [2] and in assay [3] was not above 10 µM each time.
For the compound `CCCS(=O)(=O)Nc1ccc(F)c(C(=O)c2c[nH]c3ncc(-c4cnc(OC)nc4)nc23)c1F`, the IC50 in assay [1], in assay [2] and in assay [3] was not above 10 µM throughout.
Compound `CCCS(=O)(=O)Nc1ccc(F)c(C(=O)c2c[nH]c3ncc(C#N)nc23)c1F` gave an IC50 in assay [4] not above 10 µM.
Turning to `O=C(c1c(F)ccc(NS(=O)(=O)c2ccc(C(F)(F)F)cc2)c1F)c1c[nH]c2nccnc12`, the IC50 in assay [1] and in assay [3] was not above 10 µM throughout.
Regarding `CCCS(=O)(=O)Nc1ccc(F)c(C(=O)c2c[nH]c3ncc(-c4cnn(C)c4)nc23)c1F`, the IC50 in assay [4] and in assay [5] was not above 10 µM each time.
